From paper PMC3363326 (ACS medicinal chemistry letters, 2012)
≈ marks a conversion by molar mass, not a printed value. Blank lines part the entries; values can stand above or below the molecule they belong to.

Key:
[1] = test system: staphyloxanthin pigment formation; conditions: read-out: carotenoid pigment formation in cells IC50; cited from earlier work
[2] = target: T1, S. aureus CrtM (Staphylococcus aureus, UniProt A9JQL9); conditions: read-out: CrtM IC50; cited from earlier work
[3] = target: T1, S. aureus CrtM; test: S. aureus CrtM; assay type: biochemical
[4] = target: T2, S. aureus UPPS (Staphylococcus aureus, UniProt P60477); test: S. aureus UPPS inhibition; assay type: biochemical
T2 sequence (P60477 1-256): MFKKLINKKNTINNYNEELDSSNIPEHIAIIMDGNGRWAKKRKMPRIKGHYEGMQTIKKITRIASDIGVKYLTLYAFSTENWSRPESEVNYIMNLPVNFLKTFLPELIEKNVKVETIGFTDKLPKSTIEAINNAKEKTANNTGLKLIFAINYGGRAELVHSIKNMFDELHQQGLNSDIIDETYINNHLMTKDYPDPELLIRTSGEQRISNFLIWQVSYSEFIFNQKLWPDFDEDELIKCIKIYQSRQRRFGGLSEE

[5] = test system: USA300 (MRSA) strain of S. aureus; test: S. aureus cell growth inhibition; assay type: cell-based; conditions: Staphylococcus aureus, MRSA|USA300, read-out: MIC90 against S. aureus
[6] = test system: E. coli; test: E. coli cell growth inhibition; assay type: cell-based; conditions: DH5α, K12
[7] = test system: MCF-7; test: Toxicity against human cell line; assay type: cell-based
[8] = test system: bacteria; conditions: background statement, no reference given; cited from earlier work
[9] = test system: FPPS; conditions: background statement, no reference given; cited from earlier work

SMILES: O=P(O)(O)C(CCCc1cccc(Oc2ccccc2)c1)S(=O)(=O)O (stereo not shown) [Compound 3]
IC50 [1]: ~110 nM
IC50 [2]: ~7900 nM

SMILES: CCCCCCCCCCOc1cccc(Cn2ccc(O)c(C(=O)O)c2=O)c1 [Compound 42]
CrtM inhibition, in words [3]: no activity

Ki [4]: 230 nM
SMILES: CCCCCCCCCCOc1cccc(C(=O)/C=C(\O)C(=O)O)c1 [Compound 44]

MIC90 [5]: 0.25 to 0.5 µg/mL (≈ 0.78 to 1.56 µM)
Ki [4]: 670 nM
SMILES: CCCCCCCCOc1ccc(C(=O)/C=C(\O)C(=O)O)cc1 [Compound 45]
activity against E. coli [6]: very little activity
activity against human cell lines [7]: very little activity

SMILES: O=P(O)(O)C(O)(Cn1ccnc1)P(=O)(O)O [zoledronate]
antibacterial activity [8]: little antibacterial activity
FPPS inhibition potency [9]: potent, low nM inhibitors
